Measurements published in US20240384268A1, “Oligonucleotides” (Hudson Institute of Medical Research, priority 2021, published 2024).

Target: T1, human TLR7 (Homo sapiens, UniProt Q9NYK1)
T1 construct: HA; host or cells: 293XL-hTLR7-HA (HEK293)
T1 sequence (Q9NYK1 27-1049): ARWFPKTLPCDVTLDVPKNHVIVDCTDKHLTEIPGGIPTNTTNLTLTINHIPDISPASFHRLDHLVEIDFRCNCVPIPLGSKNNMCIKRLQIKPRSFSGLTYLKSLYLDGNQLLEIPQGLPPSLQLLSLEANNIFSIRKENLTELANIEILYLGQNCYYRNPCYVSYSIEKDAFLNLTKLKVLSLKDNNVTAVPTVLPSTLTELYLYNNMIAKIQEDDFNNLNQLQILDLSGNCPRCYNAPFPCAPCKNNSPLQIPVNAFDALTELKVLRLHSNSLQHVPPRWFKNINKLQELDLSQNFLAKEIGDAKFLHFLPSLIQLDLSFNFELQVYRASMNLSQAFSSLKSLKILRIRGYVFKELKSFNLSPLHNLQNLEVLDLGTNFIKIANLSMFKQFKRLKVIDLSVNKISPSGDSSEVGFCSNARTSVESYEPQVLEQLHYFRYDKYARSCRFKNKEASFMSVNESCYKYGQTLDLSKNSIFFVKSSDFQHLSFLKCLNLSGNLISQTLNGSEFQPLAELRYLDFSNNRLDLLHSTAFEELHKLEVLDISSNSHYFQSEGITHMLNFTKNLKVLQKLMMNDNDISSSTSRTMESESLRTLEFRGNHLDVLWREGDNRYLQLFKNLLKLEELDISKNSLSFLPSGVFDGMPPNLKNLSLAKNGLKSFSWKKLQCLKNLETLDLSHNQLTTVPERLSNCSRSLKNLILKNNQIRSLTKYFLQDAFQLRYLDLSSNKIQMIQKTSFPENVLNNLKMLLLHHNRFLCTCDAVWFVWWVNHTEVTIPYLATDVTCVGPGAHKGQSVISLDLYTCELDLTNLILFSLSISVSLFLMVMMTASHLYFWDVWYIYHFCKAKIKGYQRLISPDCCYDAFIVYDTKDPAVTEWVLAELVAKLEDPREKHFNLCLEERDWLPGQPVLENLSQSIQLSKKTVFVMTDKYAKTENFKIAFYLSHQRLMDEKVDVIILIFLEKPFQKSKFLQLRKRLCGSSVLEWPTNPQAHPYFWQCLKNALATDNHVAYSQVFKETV
Experiment: HEK-TLR7 NF-κB-luciferase reporter, R848 stimulation
Assay type: cell-based
Conditions: averaged NF-κB-Luciferase relative to R848 condition; for TLR7 100 nM: MOE-modified ASO at 100 nM; for TLR7 500 nM: MOE-modified ASO at 500 nM

## AACACTTCGTGGGGTCCTTT (antisense; 2'-MOE modified, pattern not given here) [HPRT-664 MOE]
  TLR7 100 nM: 0.406
  TLR7 500 nM: 0.226

## AATCCGCCCAAAGGGAACTG (antisense; 2'-MOE modified, pattern not given here) [HPRT-1027 MOE]
  TLR7 100 nM: 0.691
  TLR7 500 nM: 0.521

## ACAACCCCTTTCACCATCCC (antisense; 2'-MOE modified, pattern not given here) [MB21D1-689 MOE]
  TLR7 100 nM: 0.593
  TLR7 500 nM: 0.533

## ACAGTGTTGAGATACTCGGG (antisense; 2'-MOE modified, pattern not given here) [EGFR-3652 MOE]
  TLR7 100 nM: 0.420
  TLR7 500 nM: 0.129

## ACCCACTTGGCAGACCATCA (antisense; 2'-MOE modified, pattern not given here) [CTNN2B-1575 MOE]
  TLR7 100 nM: 0.473
  TLR7 500 nM: 0.336

## ACTGACTGTCTTGAGGGTTC (antisense; 2'-MOE modified, pattern not given here) [MB21D1-1483 MOE]
  TLR7 100 nM: 0.627
  TLR7 500 nM: 0.299

## AGATCTGGCAGCCCATCAAC (antisense; 2'-MOE modified, pattern not given here) [CTNN2B-2516 MOE]
  TLR7 100 nM: 0.500
  TLR7 500 nM: 0.201

## AGGTCTTGGCTTCGTGGAGC (antisense; 2'-MOE modified, pattern not given here) [MB21D1-522 MOE]
  TLR7 100 nM: 0.547
  TLR7 500 nM: 0.150

## ATCCAACACTTCGTGGGGTC (antisense; 2'-MOE modified, pattern not given here) [HPRT-668 MOE]
  TLR7 100 nM: 0.758
  TLR7 500 nM: 0.611

## ATGTCCCCTGTTGACTGGTC (antisense; 2'-MOE modified, pattern not given here) [HPRT-489 MOE]
  TLR7 100 nM: 0.426
  TLR7 500 nM: 0.224

## ATGTCCCGCCACTGGATGCT (antisense; 2'-MOE modified, pattern not given here) [EGFR-727 MOE]
  TLR7 100 nM: 0.397
  TLR7 500 nM: 0.171

## ATGTGATGGCCTCCCATCTC (antisense; 2'-MOE modified, pattern not given here) [HPRT-333 MOE]
  TLR7 100 nM: 0.643
  TLR7 500 nM: 0.345

## CAACACTTCGTGGGGTCCTT (antisense; 2'-MOE modified, pattern not given here) [HPRT-665 MOE]
  TLR7 100 nM: 0.487
  TLR7 500 nM: 0.285

## CAAGGCCCTTCGCACTTCTT (antisense; 2'-MOE modified, pattern not given here) [EGFR-1225 MOE]
  TLR7 100 nM: 0.587
  TLR7 500 nM: 0.336

## CAATGTGATGGCCTCCCATC (antisense; 2'-MOE modified, pattern not given here) [HPRT-335 MOE]
  TLR7 100 nM: 0.451
  TLR7 500 nM: 0.279

## CACCCACTTGGCAGACCATC (antisense; 2'-MOE modified, pattern not given here) [CTNN2B-1576 MOE]
  TLR7 100 nM: 0.600
  TLR7 500 nM: 0.227

## CAGATAGCACCTTCAGCACT (antisense; 2'-MOE modified, pattern not given here) [CTNN2B-1294 MOE]
  TLR7 100 nM: 0.497
  TLR7 500 nM: 0.254

## CCAACACTTCGTGGGGTCCT (antisense; 2'-MOE modified, pattern not given here) [HPRT-666 MOE]
  TLR7 100 nM: 0.856
  TLR7 500 nM: 0.334

## CGTGTCTGGAAGCTTCCTTT (antisense; 2'-MOE modified, pattern not given here) [CTNN2B-808 MOE]
  TLR7 100 nM: 0.541
  TLR7 500 nM: 0.350

## CTCTTGAAGCATCGTATCAC (antisense; 2'-MOE modified, pattern not given here) [CTNN2B-3648 MOE]
  TLR7 100 nM: 0.609
  TLR7 500 nM: 0.341

## CTGTGATCTTGACATGCTGC (antisense; 2'-MOE modified, pattern not given here) [EGFR-2790 MOE]
  TLR7 100 nM: 0.449
  TLR7 500 nM: 0.206

## CTTACTTTCCGAGGTGTCCA (antisense; 2'-MOE modified, pattern not given here) [CAMSAP1-1739 MOE]
  TLR7 100 nM: 0.588
  TLR7 500 nM: 0.336

## GAACCACGTCTGCTCTAACA (antisense; 2'-MOE modified, pattern not given here) [CAMSAP1-1635 MOE]
  TLR7 100 nM: 0.597
  TLR7 500 nM: 0.291

## GAGGTCTTGGCTTCGTGGAG (antisense; 2'-MOE modified, pattern not given here) [MB21D1-523 MOE]
  TLR7 100 nM: 0.419
  TLR7 500 nM: 0.095

## GAGTCTCTGGAGCTTCCTCT (antisense; 2'-MOE modified, pattern not given here) [CAMSAP1-2456 MOE]
  TLR7 100 nM: 0.469
  TLR7 500 nM: 0.170

## GATGCTCCTCGGTCTCCCTT (antisense; 2'-MOE modified, pattern not given here) [CAMSAP1-1850 MOE]
  TLR7 100 nM: 0.453
  TLR7 500 nM: 0.199

## GATGGCCTCCCATCTCCTTC (antisense; 2'-MOE modified, pattern not given here) [HPRT-329 MOE]
  TLR7 100 nM: 0.678
  TLR7 500 nM: 0.336

## GCCGCTTTTCTGTCTGGTTC (antisense; 2'-MOE modified, pattern not given here) [CTNN2B-311 MOE]
  TLR7 100 nM: 0.567
  TLR7 500 nM: 0.268

## GCGACTATACGCGCAATATG (antisense; 2'-MOE modified, pattern not given here) [NC5 2′MOE]
  TLR7 100 nM: 0.948
  TLR7 500 nM: 0.294

## GCGGAGGTCTTGGCTTCGTG (antisense; 2'-MOE modified, pattern not given here) [MB21D1-526 MOE]
  TLR7 100 nM: 0.453
  TLR7 500 nM: 0.154

## GCGTATTATAGCCGATTAAC (antisense; 2'-MOE modified, pattern not given here) [NC1 2′MOE]
  TLR7 100 nM: 0.565
  TLR7 500 nM: 0.265

## GCGTGTCTGGAAGCTTCCTT (antisense; 2'-MOE modified, pattern not given here) [CTNN2B-809 MOE]
  TLR7 100 nM: 0.415
  TLR7 500 nM: 0.134

## GCTTCAGGCGCTGCCTTGCC (antisense; 2'-MOE modified, pattern not given here) [CAMSAP1-2709 MOE]
  TLR7 100 nM: 0.527
  TLR7 500 nM: 0.196

## GGAGATTTCAGAGCAGCTTC (antisense; 2'-MOE modified, pattern not given here) [EGFR-4885 MOE]
  TLR7 100 nM: 0.330
  TLR7 500 nM: 0.088

## GGAGCTTCGAGGCCCCAGGC (MOE modified, pattern not given here) [MB21D1-616 MOE]
  TLR7 100 nM: 0.392
  TLR7 500 nM: 0.179

## GGAGGTCTTGGCTTCGTGGA (antisense; 2'-MOE modified, pattern not given here) [MB21D1-524 MOE]
  TLR7 100 nM: 0.434
  TLR7 500 nM: 0.091

## GGCATCCACCACGTCGTCCA (antisense; 2'-MOE modified, pattern not given here) [EGFR-3266 MOE]
  TLR7 100 nM: 0.216
  TLR7 500 nM: 0.097

## GGGAAAGGTTATGCAAGGTC (antisense; 2'-MOE modified, pattern not given here) [CTNN2B-916 MOE]
  TLR7 100 nM: 0.599
  TLR7 500 nM: 0.163
